Results taken from article PMC10726354, “Design, Synthesis, and Biological Evaluation of Small-Molecule-Based Radioligands with Improved Pharmacokinetic Properties for Imaging of Programmed Death Ligand 1” (Journal of Medicinal Chemistry, 2023).
“And” between values parts separate entries of the source, which are not always exact repeats. Identical values can stand only once.

Assays:
[1] = Kinetic stability in PBS buffer (pH 7.4), radio-HPLC; format: physicochemical; settings: room temperature, radio-HPLC at 1, 24 and 48 h
Description: The kinetic stability of all ^64Cu-labeled ligands was investigated in PBS buffer solution (pH 7.4) by incubation at room temperature and monitoring with radio-HPLC up to 48 h. […] During the time course, no changes in peak number/shape and retention time were observed, proving the stability of the compounds. […] At the 48 h time point, however, a shoulder appears with a slightly higher retention time (∼7.0 min), indicating minor decomposition (>94% intact radiotracer).
The corresponding radiotracer was labeled with approximately 500 MBq of ^64Cu in 50 μL of HEPES solution (adjusted to pH 4.5), as described above. After successful labeling, 450 μL of PBS solution (pH 7.4) was added, and the incubation was performed (room temperature) at 300 rpm. At each time point (1, 24, and 48 h), an aliquot was withdrawn and injected into the radio-HPLC (PerkinElmer, Massachusetts, United States system C or D, Supporting Information). Evaluation and graphical plotting were performed with OriginPro 9.0.

[2] = tested on: PC3 PD-L1-overexpressing tumor; assay: Small-animal PET, uptake in PD-L1-overexpressing tumor; settings: for SUVmax PC3 PD-L1 overexpressing tumor: tracer only; for SUVmax PC3 PD-L1 overexpressing tumor +block: blocker i.v. before tracer: Cu-1 100 nmol 1, Cu-2 100 nmol 2, Cu-3 1000 nmol 4, Cu-4 500 nmol 4, Cu-6 250 nmol 1 (~5 min prior), Cu-5 100 nmol 5 (~30 min prior)
Description: (§1) Changes are reported as % change of the SUVmax of the PD-L1 expressing over the respective value of the mock tumor. Similarly, the effect of blocking is reported as % change of the SUVmax of the animal injected with cold compound over that of the animal that received tracer only.
(§2) Animal experiments were performed in accordance with the guidelines of the German Regulations for Animal Welfare, approved by the Saxonian Ethical Committee for Animal Experiments (reference number DD24.1-5131/449/49). Male athymic NMRI-nude mice (Rj: NMRI-Foxn1^nu/nu, Janvier Laboratories, Le Genest-Saint-Isle, France) between 8 and 22 weeks of age were used. Under general anesthesia, [∼10% desflurane (Baxter, Deerfield, IL, USA) in 30 vol % oxygen + air] and warming, the animals were subcutaneously injected with 3–5 × 10^6 PC3-PD-L1 and PC3-mock cells [in 50 μL PBS +50 μL Matrigel (Corning, Glendale, USA)] into the right and left thigh, respectively. Tumor growth was monitored three times a week by caliper measurements, and mice with tumor sizes above 7 mm were included in the experiments.
(§3) For PET studies, general anesthesia was induced as described above. PET and X-ray computed tomography (CT) were performed in a dedicated small animal nanoScan PET/CT scanner, with four animals imaged simultaneously (Mediso, Budapest, Hungary). CT images were employed for attenuation correction and anatomical referencing. Animals received three individual scans corresponding to 0–2 h (dynamic) and 4.5 and 24 h (static) postinjection.
(§4) PD-L1 radiotracer candidates (in 300 μL sterile 0.9% NaCl/HEPES buffer, pH 6–7, between 7 and 12 MBq, molar activities > 12 GBq/μmol) were delivered over 30 s i.v. (lateral tail vein) and PET acquisition started simultaneously. For blocking condition, a defined quantity of compound (the same unlabeled compound, one from the same series or BMS-1166) was diluted in sterile saline and injected i.v. approximately 5 min prior to the radiotracer. Animals not subjected to blocking were injected with vehicle at the same time.
(§5) Three-dimensional list mode data were binned using the 400–600 keV energy window and sorted into 36 time frames (15 × 10 s, 5 × 30 s, 5 × 60 s, 4 × 300 s, 3 × 600 s, 4 × 900 s). Time frames were reconstructed using the Tera-TomoTM 3D algorithm applying a voxel size of 0.4 mm and corrections for decay, scatter, and attenuation.
(§6) Three-dimensional volumes of interest were delineated applying fixed thresholding at 35% of the measured maximum intensity. Standardized uptake values (SUV = [MBq detected activity/mL tissue]/[MBq injected activity/g body weight], […]) were determined in selected volumes of interest, among these PD-L1 and mock tumors.
(§7) 14. In vivo: PET- SUV data
(§8) Standardized uptake values (SUVmax)
(§9) Supplementary table 1: In vivo standardized uptake values (SUVmax ± standard deviation) of 64Cu-labeled third series compounds [64Cu]Cu-1-6 at 1.5 (1–2), 4.5 (4–5) and 24.5 (24–25) hours
(§10) post injection (p.i.). Compounds used for blocking are described for each tracer and were intravenously injected in sterile saline at stated time before the radiotracer. Animals designated for
(§11) tracer-only received matched type and volume of vehicle at the same time.

[3] = tested on: PC3 mock tumor; assay: Small-animal PET, uptake in mock tumor; settings: for SUVmax PC3 mock tumor: tracer only; for SUVmax PC3 mock tumor +block: blocker i.v. before tracer: Cu-1 100 nmol 1, Cu-2 100 nmol 2, Cu-3 1000 nmol 4, Cu-4 500 nmol 4, Cu-6 250 nmol 1 (~5 min prior), Cu-5 100 nmol 5 (~30 min prior)
Description: as §1, §2, §3, §4, §5, §6, §7, §8, §9, §10, §11

Cc1c(COc2cc(OCc3cncc(S(C)(=O)=O)c3)c(CN[C@@H](CS(=O)(=O)O)C(=O)NCCP(=O)(O)O)cc2Cl)cccc1-c1cccc(OCc2cn(CCCN3CCN(C(=O)CC[C@H](C(=O)O)N4CCN(CC(=O)O)CCN(CC(=O)O)CC4)CC3)nn2)c1C.[64Cu+2] [[^64Cu]Cu-4]
intact radioligand in PBS (pH 7.4) [1]: > 99%
blocking effect: % change of SUVmax in PD-L1 tumor vs tracer-only ([2]; 1–2 h (1.5 h) p.i., blocker: Cu-3 1000 nmol 4, Cu-4 500/1000 nmol 4, Cu-5 100 nmol 5, Cu-6 250 nmol BMS-1166): −57%
% change of SUVmax of the PD-L1 expressing tumor over the mock tumor ([2]; 1–2 h p.i.): 146%
SUVmax PC3 PD-L1 overexpressing tumor ([2]; 1.5 (1–2) hours p.i.): 1.97 ± 0.23
SUVmax PC3 PD-L1 overexpressing tumor +block ([2]; 1.5 (1–2) hours p.i.): 0.85 ± 0.05
blocking effect: % change of SUVmax in PD-L1 tumor vs tracer-only ([2]; 4–5 h (4.5 h) p.i., blocker: Cu-3 1000 nmol 4, Cu-4 500/1000 nmol 4, Cu-5 100 nmol 5, Cu-6 250 nmol BMS-1166): −13% and −12%
% change of SUVmax of the PD-L1 expressing tumor over the mock tumor ([2]; 4–5 h p.i.): 166%
SUVmax PC3 PD-L1 overexpressing tumor ([2]; 4.5 (4–5) hours p.i.): 1.2 ± 0.4
SUVmax PC3 PD-L1 overexpressing tumor +block ([2]; 4.5 (4–5) hours p.i.): 1.05 ± 0.35
blocking effect: % change of SUVmax in PD-L1 tumor vs tracer-only ([2]; 24–25 h (24.5 h) p.i., blocker: Cu-1, Cu-2 100 nmol unlabeled compound, Cu-3 1000 nmol 4, Cu-4 500/1000 nmol 4, Cu-5 100 nmol 5, Cu-6 250 nmol BMS-1166): −45%
% change of SUVmax of the PD-L1 expressing tumor over the mock tumor ([2]; 24–25 h p.i.): 60%
SUVmax PC3 PD-L1 overexpressing tumor ([2]; 24.5 (24–25) hours p.i.): 2.0 ± 0.1
SUVmax PC3 PD-L1 overexpressing tumor +block ([2]; 24.5 (24–25) hours p.i.): 1.1 ± 0.1
SUVmax PC3 mock tumor ([3]; 1.5 (1–2) hours p.i.): 0.8 ± 0.10
SUVmax PC3 mock tumor +block ([3]; 1.5 (1–2) hours p.i.): 0.65 ± 0.05
SUVmax PC3 mock tumor ([3]; 4.5 (4–5) hours p.i.): 0.45 ± 0.05
SUVmax PC3 mock tumor +block ([3]; 4.5 (4–5) hours p.i.): 0.6 ± 0.2
SUVmax PC3 mock tumor ([3]; 24.5 (24–25) hours p.i.): 1.25 ± 0.15
SUVmax PC3 mock tumor +block ([3]; 24.5 (24–25) hours p.i.): 0.8 ± 0.3
